From BindingDB's records for patent US20240018157 (Schrödinger, 2024)

These molecules were tested against T1, Mucosa-associated lymphoid tissue lymphoma translocation protein 1 (Homo sapiens, UniProt Q9UDY8) (assay: MALT1 Protease Assay 2).
T1 sequence (Q9UDY8 whole entry): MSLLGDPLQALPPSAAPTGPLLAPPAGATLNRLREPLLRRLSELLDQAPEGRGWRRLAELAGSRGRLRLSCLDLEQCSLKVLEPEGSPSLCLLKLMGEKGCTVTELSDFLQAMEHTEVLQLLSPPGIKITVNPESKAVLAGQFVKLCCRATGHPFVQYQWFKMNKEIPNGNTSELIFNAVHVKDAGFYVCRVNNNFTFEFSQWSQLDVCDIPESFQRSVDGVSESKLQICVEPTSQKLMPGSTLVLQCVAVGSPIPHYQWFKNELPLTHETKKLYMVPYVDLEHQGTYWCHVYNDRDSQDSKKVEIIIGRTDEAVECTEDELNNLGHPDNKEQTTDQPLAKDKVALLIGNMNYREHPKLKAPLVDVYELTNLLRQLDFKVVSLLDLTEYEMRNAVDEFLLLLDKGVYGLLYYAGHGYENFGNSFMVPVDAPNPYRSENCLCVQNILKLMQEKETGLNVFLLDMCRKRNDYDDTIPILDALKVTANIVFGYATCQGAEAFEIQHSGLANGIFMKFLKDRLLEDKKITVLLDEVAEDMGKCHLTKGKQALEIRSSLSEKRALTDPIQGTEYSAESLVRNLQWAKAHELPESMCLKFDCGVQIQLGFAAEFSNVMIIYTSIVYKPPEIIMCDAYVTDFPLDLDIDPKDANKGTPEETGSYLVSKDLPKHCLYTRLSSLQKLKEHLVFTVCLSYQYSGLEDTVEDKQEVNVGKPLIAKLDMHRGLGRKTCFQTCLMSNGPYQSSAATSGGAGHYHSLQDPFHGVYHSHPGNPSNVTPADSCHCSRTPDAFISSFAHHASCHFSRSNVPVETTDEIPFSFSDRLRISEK
Protocol: Test compounds were dissolved in 100% DMSO at stock of 10 mM, with final DMSO concentration 0.1%. Test compounds were pre-incubated with MALT1 protein for 2 h at room temperature.
`C[C@]1(C(F)F)CN(C(=O)Nc2cnc(OC(F)F)c(Cl)c2)c2cnc3cc(Cl)nn3c21` [US20240018157, Example 204] gave an IC50 of 10 to 100 nM. For `Cc1cn2ncc3c(c2n1)[C@@](C)(C(F)(F)F)CN3C(=O)Nc1cnc(-n2nccn2)c(Cl)c1` [US20240018157, Example 153], the IC50 was 10 to 100 nM. With `C[C@@]1(C(F)(F)F)CN(C(=O)Nc2ccnc(C(F)F)c2)c2cnc3cc(F)nn3c21` [US20240018157, Example 88] the IC50 was 10 to 100 nM. Work on `C[C@@]1(C(F)(F)F)CN(C(=O)Nc2cnc(-n3ncc([C@H](O)CO)n3)c(Cl)c2)c2cnc3cc(Cl)nn3c21` [US20240018157, Example 70] yielded an IC50 of less than 10 nM. Work on `CNc1nc(NC(=O)N2C[C@@](C)(C(F)(F)F)c3c2cnc2cc(Cl)nn32)ccc1-n1nccn1` [US20240018157, Example 192] yielded an IC50 greater than 1000 nM. Molecule `CN(C)C(=O)COc1ncc(NC(=O)N2C[C@@](C)(C(F)(F)F)c3c2cnc2cc(Cl)nn32)cc1C(F)F` [US20240018157, Example 108] has an IC50 greater than 1000 nM. In the case of `C[C@@]1(C(F)(F)F)CN(C(=O)Nc2cnnc(C(F)F)c2)c2cnc3cc(Cl)nn3c21` [US20240018157, Example 65], the IC50 is reported as 10 to 100 nM. In the case of `CN1CCOC(c2ncc(NC(=O)N3C[C@@](C)(C(F)(F)F)c4c3cnc3cc(Cl)nn43)cc2Cl)C1` (some centres undefined) [US20240018157, Example 167], the IC50 is reported as greater than 1000 nM. With `CCc1cc2ncc3c(n2n1)[C@@](C)(C(F)(F)F)CN3C(=O)Nc1cnnc(C(F)F)c1` [US20240018157, Example 194] the IC50 was greater than 1000 nM. With `C[C@@H](O)c1cnn(-c2ncc(NC(=O)N3C[C@@](C)(C(F)(F)F)c4c3cnc3cc(Cl)nn43)cc2C(F)F)n1` [US20240018157, Example 127] the IC50 was less than 10 nM. For `C[S@@+]([O-])c1ccc(NC(=O)N2C[C@@](C)(C(F)(F)F)c3c2cnc2cc(Cl)nn32)cc1C(F)F` [US20240018157, Example 117], the IC50 was 100 to 1000 nM. `C[C@H](O)c1cnn(-c2ncc(NC(=O)N3C[C@@](C)(C(F)(F)F)c4c3cnc3cc(Cl)nn43)cc2C(F)F)n1` [US20240018157, Example 126] gave an IC50 of less than 10 nM. For `COC[C@]1(C(F)(F)F)CN(C(=O)Nc2cnc(-n3nccn3)c(Cl)c2)c2cnc3cc(Cl)nn3c21` [US20240018157, Example 98], the IC50 was 10 to 100 nM. `C[C@@]1(C(F)(F)F)CN(C(=O)Nc2cnnc(C(F)F)c2)c2cnc3cc(C#N)nn3c21` [US20240018157, Example 190] showed an IC50 greater than 1000 nM. Work on `Cc1cc(NC(=O)N2C[C@@](C)(C(F)(F)F)c3c2cnc2cc(F)nn32)cnc1-n1nccn1` [US20240018157, Example 125] yielded an IC50 of less than 10 nM. For `C[C@]1(C(F)(F)F)CN(C(=O)Nc2ccnc(C(F)F)c2)c2cnc3cc(F)nn3c21` [US20240018157, Example 89], the IC50 was 100 to 1000 nM. `CN1CC(Oc2cc(C(F)F)cc(NC(=O)N3C[C@@](C)(C(F)(F)F)c4c3cnc3cc(Cl)nn43)n2)C1` [US20240018157, Example 178] showed an IC50 greater than 1000 nM. `Cc1cn2ncc3c(c2n1)C(C)(C)CN3C(=O)Nc1cnc(C(=O)N2CC(O)C2)c(Cl)c1` [US20240018157, Example 208] gave an IC50 greater than 1000 nM. For `C[C@@]1(C(F)(F)F)CN(C(=O)n2nc(C(F)F)cc2N)c2cnc3cc(Cl)nn3c21` [US20240018157, Example 177], the IC50 was greater than 1000 nM. Molecule `C[C@]1(C(F)F)CN(C(=O)Nc2cnc(-n3nccn3)c(Cl)c2)c2cnc3cc(Cl)nn3c21` [US20240018157, Example 129] has an IC50 of 10 to 100 nM. `Cn1cc([C@@]2(C(F)(F)F)CN(C(=O)Nc3cnnc(C(F)F)c3)c3cnc4cc(Cl)nn4c32)cn1` [US20240018157, Example 211] showed an IC50 of 10 to 100 nM. `C[C@@]1(C(F)(F)F)CN(C(=O)Nc2cnc([C@H](O)CO)c(Cl)c2)c2cnc3cc(Cl)nn3c21` [US20240018157, Example 55] gave an IC50 of 10 to 100 nM. In the case of `CN(C(=O)c1ncc(NC(=O)N2C[C@@](C)(C(F)(F)F)c3c2cnc2cc(Cl)nn32)cc1C(F)F)C1CC1` [US20240018157, Example 151], the IC50 is reported as less than 10 nM. Work on `CC1(C)CC(NC(=O)N2C[C@@](C)(C(F)(F)F)c3c2cnc2cc(Cl)nn32)CCO1` (some centres undefined) [US20240018157, Example 170] yielded an IC50 greater than 1000 nM. In the case of `C[C@@]1(C(F)(F)F)CN(C(=O)Nc2cnnc(C(F)F)c2)c2cnc3cc(CC(F)F)nn3c21` [US20240018157, Example 156], the IC50 is reported as greater than 1000 nM. In the case of `Cc1cn2ncc3c(c2n1)[C@](C)(C(F)(F)F)CN3C(=O)Nc1cnc(-n2nccn2)c(Cl)c1` [US20240018157, Example 152], the IC50 is reported as less than 10 nM. For `Cc1cn2ncc3c(c2n1)[C@](C)(C(F)(F)F)CN3C(=O)Nc1cnnc(C(F)F)c1` [US20240018157, Example 119], the IC50 was 10 to 100 nM. Molecule `CO[C@]1(C(F)(F)F)CN(C(=O)Nc2cnc(-n3nccn3)c(Cl)c2)c2cnc3cc(Cl)nn3c21` [US20240018157, Example 135] has an IC50 of 100 to 1000 nM. Work on `CC(O)c1cnn(-c2ncc(NC(=O)N3C[C@@](C)(C(F)(F)F)c4c3cnc3cc(F)nn43)cc2C(F)F)n1` (some centres undefined) [US20240018157, Example 191] yielded an IC50 of less than 10 nM. `C[C@@]1(C(F)(F)F)CN(C(=O)Nc2cnc(-n3nccc3C#N)c(C#N)c2)c2cnc3cc(Cl)nn3c21` [US20240018157, Example 87] showed an IC50 of less than 10 nM. Molecule `CCc1nn2c3c(cnc2c1N)N(C(=O)Nc1cnc(-n2nccn2)c(Cl)c1)C[C@@]3(C)C(F)(F)F` [US20240018157, Example 158] has an IC50 greater than 1000 nM. Molecule `COC[C@@]1(C(F)(F)F)CN(C(=O)Nc2cnc(-n3nccn3)c(Cl)c2)c2cnc3cc(Cl)nn3c21` [US20240018157, Example 97] has an IC50 of less than 10 nM. With `Cc1nnc(C(F)F)cc1NC(=O)N1C[C@@](C)(C(F)(F)F)c2c1cnc1cc(Cl)nn21` [US20240018157, Example 154] the IC50 was 100 to 1000 nM. In the case of `C[C@]1(C(F)(F)F)CN(C(=O)Nc2cnnc(C(F)F)c2)c2cnc3cc(OC(F)F)nn3c21` [US20240018157, Example 199], the IC50 is reported as greater than 1000 nM. Molecule `C[C@@]1(C(F)(F)F)CN(C(=O)Nc2cnc(-n3nccn3)c(C#N)c2)c2cnc3cc(F)nn3c21` [US20240018157, Example 91] has an IC50 of less than 10 nM. `C[C@H](O)c1cc(NC(=O)N2C[C@@](C)(C(F)(F)F)c3c2cnc2cc(Cl)nn32)cc(C(F)(F)F)n1` [US20240018157, Example 68] showed an IC50 of 10 to 100 nM. `C[C@]1(C(F)(F)F)CN(C(=O)Nc2cnnc(C(F)F)c2)c2cnc3cc(CC(F)(F)F)nn3c21` [US20240018157, Example 196] gave an IC50 greater than 1000 nM. `CC1(C)CN(C(=O)Nc2cnc(-n3nccn3)c(Cl)c2)c2cnc3cc(Cl)nn3c21` [US20240018157, Example 1] showed an IC50 of 10 to 100 nM. Molecule `C[C@@]1(C(F)(F)F)CN(C(=O)Nc2cnn(S(C)(=O)=O)c2)c2cnc3cc(Cl)nn3c21` [US20240018157, Example 94] has an IC50 of 100 to 1000 nM. With `C[C@@H](O)c1cc(NC(=O)N2C[C@@](C)(C(F)(F)F)c3c2cnc2cc(Cl)nn32)cc(C(F)(F)F)n1` [US20240018157, Example 69] the IC50 was 10 to 100 nM. `Cc1cn2ncc3c(c2n1)C(C)(C)CN3C(=O)Nc1cnc(C(=O)N(C)C)c(Cl)c1` [US20240018157, Example 206] was tested, and the IC50 was greater than 1000 nM. With `C[C@@]1(C(F)(F)F)CN(C(=O)Nc2cc(C(F)F)no2)c2cnc3cc(Cl)nn3c21` [US20240018157, Example 103] the IC50 was 100 to 1000 nM. `C[C@]1(C(F)(F)F)CN(C(=O)Nc2cnc(-n3nccn3)c(Cl)c2)c2cnc3c(F)c(F)nn3c21` [US20240018157, Example 139] showed an IC50 greater than 1000 nM. In the case of `C[C@H](O)c1cnn(-c2ncc(NC(=O)N3C[C@@](C)(C(F)(F)F)c4c3cnc3cc(Cl)nn43)cc2Cl)n1` [US20240018157, Example 76], the IC50 is reported as less than 10 nM.
